The source of these data is patent publication US4265901A, “2-Oxybenzimidazoline compounds” (priority 1979, dated 1981).

Each structure is given as a SMILES string. Structures can show the parent of a compound that is named as a salt.

Test [1] relates to adult housefly. The test can be described thus: Adult houseflies fed on serum of dosed guinea pigs. The class given is in vivo, Musca domestica. As to conditions: guinea pig, serum at 24 hours. The protocol:
(§1) Representative compounds of the present invention were evaluated against larvae of blowfly (Phormia regina) and against adult housefly (Musca domestica). In these evaluations, the candidate compound was administered to each of two male guinea pigs weighing from about 400 grams to about 1000 grams. Administration was via the intraperitoneal route, the compound having been formulated in sesame oil. At twenty-four hours following administration of the compound, blood was withdrawn from the guinea pigs. The serum portion was isolated and blowfly larvae and adult houseflies were fed on the serum. For the blowfly assay, 10 ml. of serum were placed in a test tube with a wick onto which 50 blowfly larvae were placed. The covered test tube was incubated at 27° C. for 24 hours, at which time efficacy of the candidate compound was determined as the percent mortality of the blowfly larvae, adjusted by normal mortality in a control, and reported according to the following rating scale:
(§2) Percent mortality was determined separately for each guinea pig.
(§3) For the adult housefly test, 10 ml. of serum were employed to saturate a wick which was placed in a petri dish. Twenty-five chilled houseflies were placed in the dish which was then incubated for 24 hours at 27° C. and 50% relative humidity. After the end of the twenty-four hours, the efficacy of the candidate compound was determined as the percent mortality of housefly, adjusted as for blowfly by normal mortality in a control and reported according to the same scale as above.

A further test has as its system blowfly larvae. The test can be described thus: Blowfly larvae fed on serum of dosed guinea pigs. The class given is in vivo, Phormia regina. The settings on record: guinea pig, serum at 24 hours. As to the method: as §1, §2
Test [2] has as its system adult housefly. The test can be described thus: Efficacy against adult housefly, calves subcutaneous pellets (Example 20). The class given is in vivo, Musca domestica. The settings on record: calf 651, subcutaneous pellets about 5 mg./kg.; test day per line. The protocol:
as §3
The compound of Example 2, 2-hydroxy-2-(1,1,2,2-tetrafluoroethyl)-4-nitro-6-(trifluoromethyl)benzimidazoline sodium salt, was formulated neat into tablets, each containing about 85 mg. of compound.
These pellets were implanted in the right shoulder area of two calves, weighing 400 and 373 kilograms respectively, to supply a dose of about 5 mg./kg. (animals #651 and 1511, respectively). Another calf (animal #656) was maintained as a control and two additional calves weighing 336 and 350 kilograms (animals #654 and 655, respectively) received pellets of 2-(1,1,2,2-tetrafluoroethyl)-4-nitro-6-(trifluoromethyl)benzimidazole, to supply a dose of about 5 mg./kg. of compound.
As described in preceding examples, blood samples were withdrawn and analyzed for the concentration of the compound in the blood and percent efficacy against adult housefly and blowfly larvae.

Test [3] relates to adult housefly. The test can be described thus: Efficacy against adult housefly, calves intravenous injection (Example 17). Type of test: in vivo, Musca domestica. As to conditions: daily i.v. 0.5 to 1.5 mg/kg escalating, day per line. The protocol:
as §3
A group of three calves each weighing about 220 kilograms was employed. The compound of Example 2, 2-hydroxy-2-(1,1,2,2-tetrafluoroethyl)-4-nitro-6-(trifluoromethyl)benzimidazoline, sodium salt, was dissolved in distilled water and the resulting solution was administered by intravenous injection. Rates of administration increased throughout the evaluation period, from 0.5 to 1.5 mg./kg. of body weight, with each dose supplied for a period of 5 days (except the 1.5 mg./kg. dose, which was administered for 6 days).
On each day of the evaluation, immediately preceding that day's injection, a sample of blood was withdrawn from each calf. The concentration of the compound in the blood was determined; and the efficacy of the compound against adult housefly and blowfly larvae was assayed by the method described in Example 15. […]

Test [4] has as its system adult housefly. The test can be described thus: Efficacy against adult housefly, calves jugular infusion (Example 18). Type of test: in vivo, Musca domestica. The settings on record: Evaluation I, calf 988, jugular infusion 0.66 mg/kg/day to day 10; day/hours per line. The protocol: as §3
On each day of the evaluation, immediately preceding that day's injection, a sample of blood was withdrawn from each calf. The concentration of the compound in the blood was determined; and the efficacy of the compound against adult housefly and blowfly larvae was assayed by the method described in Example 15. Efficacy was reported, however, as the percent of blowfly larvae or adult housefly which was killed. […]
Three evaluations were conducted sequentially with the compound of Example 2, 2-hydroxy-2-(1,1,2,2-tetrafluoroethyl)-4-nitro-6-(trifluoromethyl)benzimidazoline, sodium salt, administered daily to calves by jugular infusion of a solution of the compound in distilled water. As described in the preceding example, blood samples were withdrawn and analyzed for concentration of the compound and efficacy against adult housefly and blowfly larvae.

For the compound `O=[N+]([O-])c1cc(Cl)cc2c1NC(O)(C(F)F)N2` (centres unmarked) [Example 5, 2-Hydroxy-2-(Difluoromethyl)-4-Nitro-6-Chlorobenzimidazoline, Calcium Salt], the “Efficacy Rating, Adult Housefly” value in the test on adult housefly [1] (1 mg./kg. i.p.) and in the test with adult housefly [1] (5 mg./kg. i.p.) was 1 (<50% dead) throughout. Moreover, the “Efficacy Rating, Blowfly Larvae” value in the test on blowfly larvae (1 mg./kg. i.p.) and with blowfly larvae (5 mg./kg. i.p.) was 0 (none dead) in each case.
As to `O=[N+]([O-])c1cc(C(F)(F)F)cc2c1NC(O)(C(F)(F)C(F)F)N2` (centres unmarked) [Example 2, 2-Hydroxy-2-(1,1,2,2-Tetrafluoroethyl)-4-Nitro-6-(Trifluoromethyl)Benzimidazoline, Sodium Salt, and Hydrate], the “% Efficacy, Adult Housefly” value with adult housefly [2], in the test on adult housefly [3] (calf 987), in the test with adult housefly [3] (calf 991) and in the test with adult housefly [4] was 100% in each case.
